PubChem BioAssay AID2060490 (Molecular Pharmacology Branch, DTP, NCI, 2025)
pIC50: −log10 of the molar value. Values belong to the compound of their own block, whether it stands above or below them.

System: 885512-296-R-J2-PDC complex spheroid viability
Assay: Anticancer human tumor 885512-296-R-J2-PDC patient-derived breast carcinoma cell line growth inhibition [GQUAD]
Settings: for pIC50: curve of first compound; for viability, T/C: stronger effect = lower value
Outline: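 Tumor cells were grown as complex spheroids with HUVEC endothelial cells and mesenchymal stem cells as stroma. G-quadruplex stabilizers were combined with targeted agents over half-log dilutions from near the clinical Cmax, or from 10 microM.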

[1] = second compound 0.0316 µM, first compound 0.0316 µM
[2] = second compound 0.0316 µM, first compound 0.1 µM
[3] = second compound 0.0316 µM, first compound 0.316 µM
[4] = second compound 0.0316 µM, first compound 1 µM
[5] = second compound 0.0316 µM, first compound 3.16 µM
[6] = second compound 0.0316 µM, first compound 10 µM
[7] = second compound 0.1 µM, first compound 0.0316 µM
[8] = second compound 0.1 µM, first compound 0.1 µM
[9] = second compound 0.1 µM, first compound 0.316 µM
[10] = second compound 0.1 µM, first compound 1 µM
[11] = second compound 0.1 µM, first compound 3.16 µM
[12] = second compound 0.1 µM, first compound 10 µM
[13] = second compound 0.316 µM, first compound 0.0316 µM
[14] = second compound 0.316 µM, first compound 0.1 µM
[15] = second compound 0.316 µM, first compound 0.316 µM
[16] = second compound 0.316 µM, first compound 1 µM
[17] = second compound 0.316 µM, first compound 3.16 µM
[18] = second compound 0.316 µM, first compound 10 µM
[19] = second compound 1 µM, first compound 0.0316 µM
[20] = second compound 1 µM, first compound 0.1 µM
[21] = second compound 1 µM, first compound 0.316 µM
[22] = second compound 1 µM, first compound 1 µM
[23] = second compound 1 µM, first compound 3.16 µM
[24] = second compound 1 µM, first compound 10 µM
[25] = second compound 3.16 µM, first compound 0.0316 µM
[26] = second compound 3.16 µM, first compound 0.1 µM
[27] = second compound 3.16 µM, first compound 0.316 µM
[28] = second compound 3.16 µM, first compound 1 µM
[29] = second compound 3.16 µM, first compound 3.16 µM
[30] = second compound 3.16 µM, first compound 10 µM
[31] = second compound 10 µM, first compound 0.0316 µM
[32] = second compound 10 µM, first compound 0.1 µM
[33] = second compound 10 µM, first compound 0.316 µM
[34] = second compound 10 µM, first compound 1 µM
[35] = second compound 10 µM, first compound 3.16 µM
[36] = second compound 10 µM, first compound 10 µM
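Further: spheroids exposed to the compounds for one week.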
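Wherever viability, T/C is given: percent of tumor spheroid viability relative to DMSO vehicle control wells.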

pIC50 (second compound 0.0316 µM): 5.78
pIC50 (second compound 0.1 µM): 5.87
pIC50 (second compound 0.316 µM): > 7.50
pIC50 (second compound 1 µM): > 7.50
pIC50 (second compound 3.16 µM): > 7.50
pIC50 (second compound 10 µM): > 7.50
Structure (SMILES): CC(C)(O)C1CCC(Nc2ccc3ncc(-c4cccc(C(F)(F)F)c4)n3n2)CC1 (stereo not drawn) + Cc1cnc(CNC(=O)c2c(=O)c3ccc(N4CCCN(C)CC4)nc3n3c2sc2ccccc23)cn1
viability, T/C [1]: 91.5%
viability, T/C [2]: 70.3%
viability, T/C [3]: 85.9%
viability, T/C [4]: 69.8%
viability, T/C [5]: 25.8%
viability, T/C [6]: 25.2%
viability, T/C [7]: 63.4%
viability, T/C [8]: 55.3%
viability, T/C [9]: 52.6%
viability, T/C [10]: 57.6%
viability, T/C [11]: 29.6%
viability, T/C [12]: 24.7%
viability, T/C [13]: 24.4%
viability, T/C [14]: 23.7%
viability, T/C [15]: 25.7%
viability, T/C [16]: 27.1%
viability, T/C [17]: 28.8%
viability, T/C [18]: 20.6%
viability, T/C [19]: 22.9%
viability, T/C [20]: 23.8%
viability, T/C [21]: 29.4%
viability, T/C [22]: 29.9%
viability, T/C [23]: 25.6%
viability, T/C [24]: 11.9%
viability, T/C [25]: 27.7%
viability, T/C [26]: 28%
viability, T/C [27]: 24.5%
viability, T/C [28]: 23.1%
viability, T/C [29]: 0.1%
viability, T/C [30]: 0.36%
viability, T/C [31]: 0.06%
viability, T/C [32]: 0.14%
viability, T/C [33]: 0.19%
viability, T/C [34]: 0.18%
viability, T/C [35]: 0.19%
viability, T/C [36]: 0.2%

Structure (SMILES): Nc1ccn(C2OC(CO)C(O)C2(F)F)c(=O)n1 (stereo not drawn) + CN(C)c1ccc(Nc2c3ccc(NC(=O)CCN4CCCC4)cc3nc3cc(NC(=O)CCN4CCCC4)ccc23)cc1
pIC50 (second compound 0.0316 µM): > 7.50
pIC50 (second compound 0.1 µM): > 7.50
pIC50 (second compound 0.316 µM): > 7.50
pIC50 (second compound 1 µM): > 7.50
pIC50 (second compound 3.16 µM): > 7.50
pIC50 (second compound 10 µM): > 7.50
viability, T/C [1]: 9.1%
viability, T/C [2]: 2.14%
viability, T/C [3]: 2.5%
viability, T/C [4]: 3.16%
viability, T/C [5]: 3.03%
viability, T/C [6]: 2.58%
viability, T/C [7]: 7.88%
viability, T/C [8]: 2.78%
viability, T/C [9]: 2.67%
viability, T/C [10]: 2.57%
viability, T/C [11]: 2.19%
viability, T/C [12]: 2.48%
viability, T/C [13]: 6.92%
viability, T/C [14]: 2.8%
viability, T/C [15]: 3.02%
viability, T/C [16]: 2.49%
viability, T/C [17]: 2.88%
viability, T/C [18]: 2.91%
viability, T/C [19]: 7.45%
viability, T/C [20]: 2.12%
viability, T/C [21]: 2.71%
viability, T/C [22]: 2.43%
viability, T/C [23]: 2.45%
viability, T/C [24]: 2.25%
viability, T/C [25]: 8.52%
viability, T/C [26]: 3.21%
viability, T/C [27]: 2.06%
viability, T/C [28]: 2.2%
viability, T/C [29]: 2.24%
viability, T/C [30]: 1.81%
viability, T/C [31]: 7.17%
viability, T/C [32]: 2.02%
viability, T/C [33]: 2.12%
viability, T/C [34]: 1.7%
viability, T/C [35]: 1.53%
viability, T/C [36]: 1.39%

Structure (SMILES): O=C(c1cc(Cc2n[nH]c(=O)c3ccccc23)ccc1F)N1CCN(C(=O)C2CC2)CC1 + Cc1[nH]c2ccc(F)cc2c1-c1nc2c3cccnc3c3ncccc3c2[nH]1
pIC50 (second compound 0.0316 µM): 5.08
pIC50 (second compound 0.1 µM): 5.02
pIC50 (second compound 0.316 µM): 5.07
pIC50 (second compound 1 µM): 5.29
pIC50 (second compound 3.16 µM): > 7.50
pIC50 (second compound 10 µM): > 7.50
viability, T/C [1]: 105%
viability, T/C [2]: 96.3%
viability, T/C [3]: 124%
viability, T/C [4]: 139%
viability, T/C [5]: 134%
viability, T/C [6]: 36%
viability, T/C [7]: 98%
viability, T/C [8]: 103%
viability, T/C [9]: 119%
viability, T/C [10]: 137%
viability, T/C [11]: 146%
viability, T/C [12]: 46.4%
viability, T/C [13]: 94.3%
viability, T/C [14]: 99.2%
viability, T/C [15]: 112%
viability, T/C [16]: 150%
viability, T/C [17]: 131%
viability, T/C [18]: 38.7%
viability, T/C [19]: 75.2%
viability, T/C [20]: 74.4%
viability, T/C [21]: 82.4%
viability, T/C [22]: 101%
viability, T/C [23]: 70.5%
viability, T/C [24]: 21%
viability, T/C [25]: 13.8%
viability, T/C [26]: 13.9%
viability, T/C [27]: 16.7%
viability, T/C [28]: 14.9%
viability, T/C [29]: 6.15%
viability, T/C [30]: 2.65%
viability, T/C [31]: 2.34%
viability, T/C [32]: 2.08%
viability, T/C [33]: 3.14%
viability, T/C [34]: 1.59%
viability, T/C [35]: 1.27%
viability, T/C [36]: 1.27%

pIC50 (second compound 0.0316 µM): < 5.00
pIC50 (second compound 0.1 µM): < 5.00
pIC50 (second compound 0.316 µM): > 7.50
pIC50 (second compound 1 µM): > 7.50
pIC50 (second compound 3.16 µM): > 7.50
pIC50 (second compound 10 µM): > 7.50
Structure (SMILES): Cc1cccc(N(C)C(=O)C2C(O)CCN2c2nc(C)cc(C(F)(F)F)c2C#N)c1 (stereo not drawn) + Cc1cnc(CNC(=O)c2c(=O)c3ccc(N4CCCN(C)CC4)nc3n3c2sc2ccccc23)cn1
viability, T/C [1]: 93.2%
viability, T/C [2]: 86.2%
viability, T/C [3]: 87.4%
viability, T/C [4]: 82.8%
viability, T/C [5]: 91.4%
viability, T/C [6]: 75.6%
viability, T/C [7]: 65.8%
viability, T/C [8]: 64.4%
viability, T/C [9]: 63.1%
viability, T/C [10]: 61.2%
viability, T/C [11]: 52.5%
viability, T/C [12]: 63.9%
viability, T/C [13]: 31%
viability, T/C [14]: 36.2%
viability, T/C [15]: 35.8%
viability, T/C [16]: 33.9%
viability, T/C [17]: 28.6%
viability, T/C [18]: 28.6%
viability, T/C [19]: 26.3%
viability, T/C [20]: 29%
viability, T/C [21]: 28.4%
viability, T/C [22]: 25.6%
viability, T/C [23]: 27.3%
viability, T/C [24]: 28.7%
viability, T/C [25]: 43.4%
viability, T/C [26]: 25.7%
viability, T/C [27]: 30.3%
viability, T/C [28]: 30.5%
viability, T/C [29]: 28.5%
viability, T/C [30]: 30.2%
viability, T/C [31]: 0.21%
viability, T/C [32]: 0.26%
viability, T/C [33]: 0.26%
viability, T/C [34]: 0.25%
viability, T/C [35]: 0.25%
viability, T/C [36]: 0.25%
